Assay results as given in paper PMC8580996, “2-Oxoglutarate derivatives can selectively enhance or inhibit the activity of human oxygenases” (Nature Communications, 2021).
Values joined by “and” are separate entries in the source; they are usually repeats but may differ in a detail not shown here. Identical values can stand only once.

Legend:
FIH [1] = molecular target: T1, FIH (Homo sapiens, UniProt Q9NWT6); test: FIH steady-state kinetic parameters (SPE-MS, initial hydroxylation rates); format: biochemical; design: slope of initial reaction rate: unit not given here
T1 sequence (Q9NWT6 whole entry): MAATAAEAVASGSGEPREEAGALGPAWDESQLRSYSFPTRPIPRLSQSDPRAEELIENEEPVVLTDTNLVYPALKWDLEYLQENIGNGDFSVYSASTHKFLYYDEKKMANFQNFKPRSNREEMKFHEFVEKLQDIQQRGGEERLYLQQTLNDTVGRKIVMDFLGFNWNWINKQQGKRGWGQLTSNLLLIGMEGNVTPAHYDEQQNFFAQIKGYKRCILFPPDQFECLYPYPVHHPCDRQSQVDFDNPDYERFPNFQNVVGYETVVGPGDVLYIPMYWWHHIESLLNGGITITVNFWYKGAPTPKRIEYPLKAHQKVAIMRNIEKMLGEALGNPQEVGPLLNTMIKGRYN
In short: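 FIH-catalysed CA1-20 peptide hydroxylation with varied 2OG or 2OG derivative, 20 μM ammonium iron(II) sulfate plus L-ascorbic acid, in 50 mM Tris, 50 mM NaCl, pH 7.5, 20 °C, monitored by SPE-MS (~1 sample/40 s). Initial rates fitted to Michaelis–Menten for vapp and Kapp; independent triplicates.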

FIH [2] = molecular target: T1, FIH; test: Mechanism of FIH inhibition: 2OG kinetics at variable concentrations of 18 (Ki, Cornish-Bowden plot); format: biochemical; design: FIH reaction rate at variable 2OG and compound 18 concentrations (Figure 5a): unit not given here
Procedure: Supplementary Figure 28. Determination of the FIH Kapp for 4-(3-phenylprop-1-yl)-2OG (18) (continues on […]
the following page). […]
(LAA), and 20 μM ammonium iron(II) sulfate hexahydrate (FAS, (NH4)2Fe(SO4)2·6H2O) in buffer (50 mM Tris, 50 mM NaCl, pH 7.5, 20° C). Measurement times were normalized to the first sample injection analyzed after the […]
are shown as the mean of independent triplicates (n = 3; mean ± standard deviation, SD). […]
2OG concentrations, determined in the presence of 0.5 μM 18; (e) hydroxylation rates used for the kinetic analysis; […]

In the case of `O=C(O)CCC(=O)C(=O)O` [2OG, 2-Oxoglutarate], the “slope of initial reaction rate” value (FIH [1]; CA1-20, 0.25 μM 2OG) is reported as 0.01003 and 0.007495, the “slope of initial reaction rate” value (FIH [1]; CA1-20, 0.5 μM 2OG) is reported as 0.01547 and 0.01452 and 0.0138 and the “slope of initial reaction rate” value (FIH [1]; CA1-20, 1 μM 2OG) is reported as 0.01838 and 0.01865 and 0.02116. The “slope of initial reaction rate” value (FIH [1]; CA1-20, 2 μM 2OG) was 0.02416 and 0.02022 and 0.02356, the “slope of initial reaction rate” value (FIH [1]; CA1-20, 4 μM 2OG) was 0.02388 and 0.01977 and 0.02365 and the “slope of initial reaction rate” value (FIH [1]; CA1-20, 8 μM 2OG) was 0.02261 and 0.02524. For the same compound, the “slope of initial reaction rate” value (FIH [1]; HIF-1a788-822, 0.1 μM 2OG) was 0.000581 and 0.000778 and 0.00072, the “slope of initial reaction rate” value (FIH [1]; HIF-1a788-822, 0.25 μM 2OG) was 0.001141 and 0.001302 and 0.001382 and the “slope of initial reaction rate” value (FIH [1]; HIF-1a788-822, 0.5 μM 2OG) was 0.001962 and 0.002167 and 0.002275. The “slope of initial reaction rate” value (FIH [1]; HIF-1a788-822, 1 μM 2OG) was 0.003115 and 0.003005 and 0.00301, the “slope of initial reaction rate” value (FIH [1]; HIF-1a788-822, 2 μM 2OG) was 0.00418 and 0.004157 and 0.004411 and the “slope of initial reaction rate” value (FIH [1]; HIF-1a788-822, 4 μM 2OG) was 0.004637 and 0.004674 and 0.005127. For the same compound, the “slope of initial reaction rate” value (FIH [1]; HIF-1a788-822, 8 μM 2OG) was 0.004319 and 0.005019 and 0.005929, the “slope of initial reaction rate” value (FIH [1]; HIF-1a788-822, 16 μM 2OG) was 0.00539 and 0.005468 and 0.006359 and the “slope of initial reaction rate” value (FIH [1]; HIF-1a788-822, 32 μM 2OG) was 0.006447 and 0.005635. The “FIH Kmapp” value (FIH [1]; HIF-1α788–822 substrate) was 0.84 µM, the “FIH Kmapp for 2OG” value (FIH [2]; absence of 18, HIF-1α788-822) was 0.74 ± 0.07 µM and the “FIH vmaxapp for 2OG” value (FIH [2]; absence of 18, HIF-1α788-822) was 5.9 ± 0.1 10-3 μM·s-1.

In the case of `O=C(O)C(=O)CC(CCCc1ccccc1)C(=O)O` (stereo not drawn) [compound 18, 4-(3-phenylpropyl)-2OG], the “2OG concentration / rate, Cornish-Bowden plot (Figure 5b)” value (“2OG concentration / rate” for short) (FIH [2]; 0.5 μM 18, 2 μM 2OG) is reported as 738.825 and 619.579 and 831.947, the “2OG concentration / rate” value (FIH [2]; 0.5 μM 18, 4 μM 2OG) is reported as 1161.44 and 956.709 and 1175.78 and the “2OG concentration / rate” value (FIH [2]; 0.5 μM 18, 8 μM 2OG) is reported as 1892.15 and 1526.72 and 1620.09. For the same compound, the “2OG concentration / rate” value (FIH [2]; 0.5 μM 18, 16 μM 2OG) was 2827.85 and 3158.93 and 3165.81, the “2OG concentration / rate” value (FIH [2]; 0.5 μM 18, 32 μM 2OG) was 6761.04 and 5757.47 and 6079.03 and the “2OG concentration / rate” value (FIH [2]; 0.5 μM 18, 64 μM 2OG) was 11329.4 and 12181.2 and 11500.5. For the same compound, the “FIH reaction rate at variable 2OG and compound 18 concentrations (Figure 5a)” value (“FIH reaction rate” for short) (FIH [2]; 0.5 μM compound 18, 0 μM 2OG) was 0, the “FIH reaction rate” value (FIH [2]; 0.5 μM compound 18, 0.5 μM 2OG) was 0.000919 and 0.000982 and 0.001057 and the “FIH reaction rate” value (FIH [2]; 0.5 μM compound 18, 1 μM 2OG) was 0.001502 and 0.002201 and 0.001615. For the same compound, the “FIH reaction rate” value (FIH [2]; 0.5 μM compound 18, 2 μM 2OG) was 0.002707 and 0.003228 and 0.002404, the “FIH reaction rate” value (FIH [2]; 0.5 μM compound 18, 4 μM 2OG) was 0.003444 and 0.004181 and 0.003402 and the “FIH reaction rate” value (FIH [2]; 0.5 μM compound 18, 8 μM 2OG) was 0.004228 and 0.00524 and 0.004938. For the same compound, the “FIH reaction rate” value (FIH [2]; 0.5 μM compound 18, 16 μM 2OG) was 0.005658 and 0.005065 and 0.005054, the “FIH reaction rate” value (FIH [2]; 0.5 μM compound 18, 32 μM 2OG) was 0.004733 and 0.005558 and 0.005264 and the “FIH reaction rate” value (FIH [2]; 0.5 μM compound 18, 64 μM 2OG) was 0.005649 and 0.005254 and 0.005565. The “2OG concentration / rate” value (FIH [2]; 1 μM 18, 2 μM 2OG) was 1398.6 and 985.222 and 1090.51, the “2OG concentration / rate” value (FIH [2]; 1 μM 18, 4 μM 2OG) was 1161.44 and 1382.65 and 1432.15 and the “2OG concentration / rate” value (FIH [2]; 1 μM 18, 8 μM 2OG) was 2089.32 and 1965.12 and 2137.89. For the same compound, the “2OG concentration / rate” value (FIH [2]; 1 μM 18, 16 μM 2OG) was 3148.99 and 3185.35 and 3256, the “2OG concentration / rate” value (FIH [2]; 1 μM 18, 32 μM 2OG) was 5969.04 and 5882.35 and the “2OG concentration / rate” value (FIH [2]; 1 μM 18, 64 μM 2OG) was 12176.6 and 10488.4. The “FIH reaction rate” value (FIH [2]; 1.0 μM compound 18, 0 μM 2OG) was 0, the “FIH reaction rate” value (FIH [2]; 1.0 μM compound 18, 0.5 μM 2OG) was 0.000462 and 0.000537 and 0.000636 and the “FIH reaction rate” value (FIH [2]; 1.0 μM compound 18, 1 μM 2OG) was 0.000809 and 0.001158 and 0.001225. For the same compound, the “FIH reaction rate” value (FIH [2]; 1.0 μM compound 18, 2 μM 2OG) was 0.00143 and 0.00203 and 0.001834, the “FIH reaction rate” value (FIH [2]; 1.0 μM compound 18, 4 μM 2OG) was 0.003444 and 0.002893 and 0.002793 and the “FIH reaction rate” value (FIH [2]; 1.0 μM compound 18, 8 μM 2OG) was 0.003829 and 0.004071 and 0.003742. The “FIH reaction rate” value (FIH [2]; 1.0 μM compound 18, 16 μM 2OG) was 0.005081 and 0.005023 and 0.004914, the “FIH reaction rate” value (FIH [2]; 1.0 μM compound 18, 32 μM 2OG) was 0.005361 and 0.00544 and the “FIH reaction rate” value (FIH [2]; 1.0 μM compound 18, 64 μM 2OG) was 0.005256 and 0.006102. The “2OG concentration / rate” value (FIH [2]; 2 μM 18, 2 μM 2OG) was 2902.76 and 2272.73 and 1572.33, the “2OG concentration / rate” value (FIH [2]; 2 μM 18, 4 μM 2OG) was 2503.13 and 2493.77 and 2115.28 and the “2OG concentration / rate” value (FIH [2]; 2 μM 18, 8 μM 2OG) was 3164.56 and 2950.94 and 2606.71. For the same compound, the “2OG concentration / rate” value (FIH [2]; 2 μM 18, 16 μM 2OG) was 5053.7 and 4190.68 and 4087.89, the “2OG concentration / rate” value (FIH [2]; 2 μM 18, 32 μM 2OG) was 7228.37 and 7157.24 and 7025.25 and the “2OG concentration / rate” value (FIH [2]; 2 μM 18, 64 μM 2OG) was 11617.4 and 13556.5. The “FIH reaction rate” value (FIH [2]; 2.0 μM compound 18, 0 μM 2OG) was 0, the “FIH reaction rate” value (FIH [2]; 2.0 μM compound 18, 1 μM 2OG) was 0.000474 and 0.000421 and 0.000679 and the “FIH reaction rate” value (FIH [2]; 2.0 μM compound 18, 2 μM 2OG) was 0.000689 and 0.00088 and 0.001272. The “FIH reaction rate” value (FIH [2]; 2.0 μM compound 18, 4 μM 2OG) was 0.001598 and 0.001604 and 0.001891, the “FIH reaction rate” value (FIH [2]; 2.0 μM compound 18, 8 μM 2OG) was 0.002528 and 0.002711 and 0.003069 and the “FIH reaction rate” value (FIH [2]; 2.0 μM compound 18, 16 μM 2OG) was 0.003166 and 0.003818 and 0.003914. For the same compound, the “FIH reaction rate” value (FIH [2]; 2.0 μM compound 18, 32 μM 2OG) was 0.004427 and 0.004471 and 0.004555, the “FIH reaction rate” value (FIH [2]; 2.0 μM compound 18, 64 μM 2OG) was 0.005509 and 0.004721 and the “2OG concentration / rate” value (FIH [2]; 4 μM 18, 2 μM 2OG) was 4319.65 and 4926.11 and 3120.12. For the same compound, the “2OG concentration / rate” value (FIH [2]; 4 μM 18, 4 μM 2OG) was 4866.18 and 5181.35 and 3610.11, the “2OG concentration / rate” value (FIH [2]; 4 μM 18, 8 μM 2OG) was 5025.13 and 6092.92 and the “2OG concentration / rate” value (FIH [2]; 4 μM 18, 16 μM 2OG) was 7045.35 and 7289.29 and 6153.85. The “2OG concentration / rate” value (FIH [2]; 4 μM 18, 32 μM 2OG) was 9395.18 and 8886.42 and 8623.01, the “2OG concentration / rate” value (FIH [2]; 4 μM 18, 64 μM 2OG) was 15241.7 and 14522.4 and 14719.4 and the “FIH reaction rate” value (FIH [2]; 4.0 μM compound 18, 0 μM 2OG) was 0. For the same compound, the “FIH reaction rate” value (FIH [2]; 4.0 μM compound 18, 2 μM 2OG) was 0.000463 and 0.000406 and 0.000641, the “FIH reaction rate” value (FIH [2]; 4.0 μM compound 18, 4 μM 2OG) was 0.000822 and 0.000772 and 0.001108 and the “FIH reaction rate” value (FIH [2]; 4.0 μM compound 18, 8 μM 2OG) was 0.001592 and 0.001313 and 0.00107. The “FIH reaction rate” value (FIH [2]; 4.0 μM compound 18, 16 μM 2OG) was 0.002271 and 0.002195 and 0.0026, the “FIH reaction rate” value (FIH [2]; 4.0 μM compound 18, 32 μM 2OG) was 0.003406 and 0.003601 and 0.003711 and the “FIH reaction rate” value (FIH [2]; 4.0 μM compound 18, 64 μM 2OG) was 0.004199 and 0.004407 and 0.004348. The Ki (FIH [2]; non-linear regression, HIF-1α788–822, 2OG-competitive) was about 200 nM, the “FIH Kmapp for 2OG” value (FIH [2]; presence of 0.5 μM 18) was 2.12 ± 0.20 µM and the “FIH vmaxapp for 2OG” value (FIH [2]; presence of 0.5 μM 18) was 5.8 ± 0.1 10-3 μM·s-1. For the same compound, the “FIH Kmapp for 2OG” value (FIH [2]; presence of 1.0 μM 18) was 4.58 ± 0.34 µM, the “FIH vmaxapp for 2OG” value (FIH [2]; presence of 1.0 μM 18) was 6.2 ± 0.1 10-3 μM·s-1 and the “FIH Kmapp for 2OG” value (FIH [2]; presence of 2.0 μM 18) was 9.62 ± 0.91 µM. The “FIH vmaxapp for 2OG” value (FIH [2]; presence of 2.0 μM 18) was 5.9 ± 0.2 10-3 μM·s-1, the “FIH Kmapp for 2OG” value (FIH [2]; presence of 4.0 μM 18) was 25.1 ± 2.5 µM and the “FIH vmaxapp for 2OG” value (FIH [2]; presence of 4.0 μM 18) was 6.1 ± 0.3 10-3 μM·s-1.
